In patent publication US11045487B2, “Pharmaceutical preparation treating bone lesions caused by malignant neoplasms” (priority 2016, dated 2021):

Columns and labels:
[1] = system: bone lesions caused by malignant neoplasms; assay: Phase I open non-randomized multicenter clinical study; format: in vivo; settings: patients; intravenous infusion daily for 5 days, break of 23 days; on free acid basis
Experimental: To assess the efficacy and safety of the novel medicinal drug, clinical studies of phase I were conducted according to “Open non-randomized multicenter clinical study” protocol.
All patients received a single dosing with the study drug in a dose corresponding to the dose level of the cohort with the subsequent weekly follow-up period and at least 2 cycles of multiple dosing. The cycle consisted of daily administration (o.d.) of the drug for 5 days, followed by a break of 23 days. […] According to protocol criteria, the maximum tolerated dose is considered a dose 1 level lower than DLT (5 mg/kg).

[2] = Thermal behaviour of solutions for lyophilization (DSC); format: physicochemical
Excerpt: Differential Scanning calorimetry (DSC) was used to identify the lowest possible transient temperature in the solution throughout the entire lyophilization process, including freezing and dehydration. For the solutions of most pharmaceutical products, this parameter is represented by the glass transition temperature or “Tgt”. All components and their amounts in the solution contribute to the final value of Tgt. This temperature is usually several degrees below the temperature at which the sintered material can crumble during the lyophilization process (collapse temperature, Tc). Without determining the collapse temperature by such methods as cryomicroscopy, the glass transition temperature can be used to select the primary drying temperature. Until the primary drying is completed, the initial drying temperature should be set in such a manner that there are no vials for which the glass transition temperature has been exceeded (or Tc, if known). Otherwise, the structure of the sintered material may get broken. On the one hand, the lyophilization temperature should be close to Tgt, so that the process proceeds efficiently, and on the other hand, it cannot exceed Tgt due to process requirements and qualitative product parameters. Thus, the values of collapse and glass transition temperature are important parameters for calculating safe upper temperature limits, which can be used for lyophilization. Based on the proposed filling of the vials with the drug (100 mg of active ingredient per vial), potential solutions for filling were prepared. The excipients included sterile water for injection (SWFI), 50 mM succinate and tartrate buffers at pH 5, MgCl2, sulfobutylether β-cyclodextrin (SBEβCD), mannitol and dextran 40. In addition, for solutions containing mannitol, a study of the effect of the annealing stage (the lyophilization process stage when the samples are kept at a certain temperature below the freezing point for a certain period of time) on the improvement the crystallinity of the finished product was performed. […]

[3] = Succinate buffer, MBC-11 25 mg/mL, MgCl2, 86.5 mmol/L
[4] = Tartrate buffer, MBC-11 25 mg/mL, MgCl2, 86.5 mmol/L

CC(O)(P(=O)(O)O)P(=O)(O)OP(=O)(O)OC[C@H]1O[C@@H](n2ccc(N)nc2=O)[C@@H](O)[C@@H]1O.[Na].[Na].[Na] (stereo partly drawn) [MBC-11, Trisodium salt of 1-((((((2R,3S,4S,5R)-5-(4-amino-2-oxopyrimidine-1(2H)-yl)-3,4-dihydroxytetrahydrofuran-2-yl)methoxy))(hydroxy)phosphoryloxy)(hydroxy)phosphoryl)-1-hydroxyethylphosphonic acid]
maximum tolerated daily dose [1]: 5 mg/kg | Thermal effect (event): endotherm ([2]; SWFI, MBC-11 25 mg/mL, MgCl2, 43.25 mmol/L): −21 °C (endotherm) | Thermal effect (event): possible crystallization ([2]; SWFI, MBC-11 25 mg/mL, MgCl2, 43.25 mmol/L + Mannitol, 25 mg/mL): −27 °C | Thermal effect (event): specific endothermicity (none crystallization after temperature processing) ([2]; SWFI, MBC-11 25 mg/mL, MgCl2, 43.25 mmol/L + Mannitol, 25 mg/mL, Annealing at −20° C.): −22 °C | Thermal effect (event): weak endothermicity (none crystallization after annealing) ([2]; SWFI, MBC-11 25 mg/mL, MgCl2, 43.25 mmol/L + Mannitol, 25 mg/mL, Annealing at −24° C.): −22 °C | Thermal effect (event): endothermicity ([2]; SWFI, MBC-11 25 mg/mL, MgCl2, 86.5 mmol/L): −26 °C (endothermicity) | Thermal effect (event) ([2]; SWFI, MBC-11 25 mg/mL, MgCl2, 86.5 mmol/L + Mannitol, 25 mg/mL): Tgt/endothermicity before | Thermal effect (event): endothermicity ([2]; SWFI, MBC-11 50 mg/mL, MgCl2, 86.5 mmol/L): −21 °C (endothermicity) | Thermal effect (event) ([2]; SWFI, MBC-11 50 mg/mL, MgCl2, 86.5 mmol/L + Mannitol, 25 mg/mL): Tgt/endothermicity before | Thermal effect (event): endothermicity ([2]; SWFI, MBC-11 50 mg/mL, MgCl2, 173 mmol/L): −26 °C (endothermicity) | Thermal effect (event) ([2]; SWFI, MBC-11 50 mg/mL, MgCl2, 173 mmol/L + Mannitol, 25 mg/mL): Tgt/endothermicity before | Thermal effect (event): endothermicity ([2]; SWFI, MBC-11 100 mg/mL, MgCl2, 173 mmol/L): −22 °C (endothermicity) | Thermal effect (event): endothermicity ([2]; SWFI, MBC-11 100 mg/mL, MgCl2, 350 mmol/L): −26 °C (endothermicity) | Thermal effect (event): crystallization [2, 3]: −34 °C (crystallization) | Thermal effect (event): endothermicity [2, 3]: −26 °C (endothermicity) | Thermal effect (event) ([2]; Succinate buffer, MBC-11 25 mg/mL, MgCl2, 86.5 mmol/L + Mannitol, 25 mg/mL): Tgt/endothermicity before | Thermal effect (event): crystallization [2, 4]: −30 °C (crystallization) | Thermal effect (event): endothermicity [2, 4]: −22 °C (endothermicity)
